Source: patent publication US10369145B2, “Coumarin derivatives and methods of use in treating hyperproliferative diseases” (DISCOVERYBIOMED, INC., priority 2013, dated 2019)
Read-outs that look alike come from different tables or passages of the source.

Tests used:
RPMI-8826 = experiment: Complementary DBM in vitro profiling: RPMI-8826 (Hematologic Cancer); assay type: cell-based
Method: (§1) The compounds described herein are effective for inhibiting cellular proliferation in hyperproliferative cell types. To study the effects of these compounds, an assay was developed to differentiate the effects of the compounds on proliferating versus confluent cells. The assay design generates a proliferating density 24 hours after seeding and provides a 3-day active cell growth/doubling window in which to gauge the anti-proliferative effect of the compounds described herein. […] In this 3-day growth window, cell number increases with daily doublings across the 72-hour period (see FIG. 1).
(§2) In each assay design, compounds were added at the 24-hour timepoint after cell seeding. The effect of the compounds, relative to vehicle control and to VelCade (a proteasome inhibitor approved in the U.S. for treating relapsed multiple myeloma and mantle cell lymphoma) as a positive control, was assessed across the 3-day growth window for proliferating cells and on an already near confluent culture of cells for the same time period. Normal cells were handled in the same manner, with some adjustment of seeding density needed in select cases. […]
(§3) Cell number at the end of the assay was determined using the CELLTITER-GLO Luminescent Cell Viability Assay (Promega; Madison, Wis.). The CELLTITER-GLO Luminescent Cell Viability Assay is a homogeneous method of determining the number of viable cells in culture based on quantitation of the ATP present, an indicator of metabolically active cells. IC50 values were calculated. […]
(§4) For a typical screening experiment to identify the compounds, cells were seeded into 96- or 384-well microtiter plates at plating densities pre-determined for each cell line to ensure drug exposure occurs during the proliferative phase well before confluency is reached. […] Values were calculated for each of these three parameters if the level of activity was reached; however, if the effect was not reached or was exceeded, the value for that parameter was expressed as greater or less than the maximum or minimum concentration tested.

PC-3 = experiment: NCI 60 panel: PC-3 (Prostate Cancer); assay type: cell-based
CCRF-CEM = experiment: NCI 60 panel: CCRF-CEM (Leukemia); assay type: cell-based
SK-MEL-2 = experiment: NCI 60 panel: SK-MEL-2 (Melanoma); assay type: cell-based
ACHN = experiment: NCI 60 panel: ACHN (Renal Cancer); assay type: cell-based
TK-10 = experiment: NCI 60 panel: TK-10 (Renal Cancer); assay type: cell-based
NCI/ADR-RES = system: NCI/ADR-RES
Source text: (§5) TGI means the drug concentration resulting in total growth inhibition or “cytostasis.” LC50 is the concentration of drug resulting in a 50% reduction in the measured cytosolic ATP at the end of the drug treatment as compared to that at the beginning, indicating a net loss of cells following treatment (cytotoxicity).
(§6) A major limitation with the anti-mitotic drugs in particular and in conventional chemotherapeutics in general, is their susceptibility to cellular mechanisms of adaptive/intrinsic multi-drug resistance (i.e., MDR efflux pumps such as p-glycoprotein, MRP1).

OVCAR-3 = system: OVCAR-3
Source text: as §5, §6

myeloma cells = assay type: cell-based
Method: as §4, with “reached. After seeding, cells were incubated for 24 h prior to addition of experimental drugs. After 24 h, a test plate was assayed (CellTiterGlo—measurement of cytosolic ATP) to determine a baseline measurement of the cell population for each cell line at the time of drug addition. Experimental drugs were then added and cells were cultured for a 48 h drug exposure window.” for “reached.”

U266 = experiment: Complementary DBM in vitro profiling: U266 (Hematologic Cancer); assay type: cell-based
Method: as §1, §2, §3, §4

NCI-H226 = experiment: NCI 60 panel: NCI-H226 (Non-Small Cell Lung Cancer); assay type: cell-based
HL-60 = experiment: NCI 60 panel: HL-60 (Leukemia); assay type: cell-based
MOLT-4 = experiment: NCI 60 panel: MOLT-4 (Leukemia); assay type: cell-based
K-562 = experiment: NCI 60 panel: K-562 (Leukemia); assay type: cell-based
HS 578T = experiment: NCI 60 panel: HS 578T (Breast Cancer); assay type: cell-based
[1] = system: hyperproliferative PKD cells (cloned polycystic kidney tissue cells); experiment: Concentration-response in primary cultures cloned from cystic kidney tissue; assay type: cell-based; settings: hyperproliferative PKD cells, 72 hour treatment
Method: The concentration-response effects of Compound DBM 228, Compound DBM 308, Compound DBM 101, and Compound DBM 328 were determined in primary cultures derived as ‘clones’ from cystic versus non-cystic kidney tissue. CRC graphs, IC50 values, and the percent maximum inhibition versus lowest doses without effect were calculated with GraphPad Prism software. […] There was also a marked separation in effect between hyperproliferative PKD cells (FIG. 5A and Table 3) and WT cells (FIG. 5B and Table 4).

SK-MEL-28 = experiment: NCI 60 panel: SK-MEL-28 (Melanoma); assay type: cell-based
HCT-116 = experiment: NCI 60 panel: HCT-116 (Colon Cancer); assay type: cell-based
M14 = experiment: NCI 60 panel: M14 (Melanoma); assay type: cell-based
MALME-3M = experiment: NCI 60 panel: MALME-3M (Melanoma); assay type: cell-based
[2] = read-out: LC50 (the source's name)
[3] = myeloma cells, 48 h drug exposure

COc1ccccc1Nc1nc(-c2cc3cccc(N)c3oc2=O)cs1 [Compound DBM 228]
GI50 (RPMI-8826): 271 nM | TGI (RPMI-8826): 312 nM | CC50 (RPMI-8826; [2]): > 30000 nM | GI50 (PC-3): 270 nM | TGI (PC-3): 36000 nM | CC50 (PC-3; [2]): > 100000 nM | GI50 (CCRF-CEM): 177 nM | LC50 (50% lethal concentration) (CCRF-CEM): > 100000 nM | TGI (CCRF-CEM): 15400 nM | GI50 (SK-MEL-2): 86 nM | TGI (SK-MEL-2): 28400 nM | CC50 (SK-MEL-2; [2]): 99500 nM | GI50 (ACHN): 1490 nM | TGI (ACHN): 15900 nM | CC50 (ACHN; [2]): 42700 nM | GI50 (TK-10): 10000 nM | TGI (TK-10): 23500 nM | CC50 (TK-10; [2]): 55000 nM | CC50 (NCI/ADR-RES): > 100000 nM | potency in multi-drug resistant line, in words (FIG. 9) (NCI/ADR-RES; NCI-ADR/RES versus drug-responsive cells): remained potent | GI50 (NCI/ADR-RES; NCI/ADR-RES): 45.9 nM | TGI (NCI/ADR-RES; NCI/ADR-RES): 327 nM | IC50 (NCI/ADR-RES; read-out: potency in the NCI-ADR/RES cell line, multi-drug resistant NCI-ADR/RES): 44.5 nM | CC50 (OVCAR-3): 24200 nM | GI50 (OVCAR-3; OVCAR-3): 45.6 nM | TGI (OVCAR-3; OVCAR-3): 322 nM | GI50 (OVCAR-3; OVCAR-3, as stated in text): 50 nM | CC50 (myeloma cells): > 4000 nM | GI50 (myeloma cells; [3]): 160 nM | TGI (myeloma cells; [3]): 271 nM | GI50 (U266): 79.6 nM | TGI (U266): 116 nM | CC50 (U266; [2]): 161 nM | GI50 (NCI-H226): 11200 nM | TGI (NCI-H226): 37200 nM | CC50 (NCI-H226; [2]): > 100000 nM | GI50 (HL-60): 34 nM | TGI (HL-60): 137 nM | CC50 (HL-60; [2]): 825 nM | GI50 (MOLT-4): 168 nM | TGI (MOLT-4): 17800 nM | CC50 (MOLT-4; [2]): > 100000 nM | GI50 (K-562): 43 nM | TGI (K-562): 16100 nM | CC50 (K-562; [2]): > 100000 nM | GI50 (HS 578T): 13700 nM | TGI (HS 578T): >100000 nM | CC50 (HS 578T; [2]): > 100000 nM | IC50 [1]: 690 nM | Max inhibition [1]: 61% | GI50 (SK-MEL-28): 88.9 nM | TGI (SK-MEL-28): 31000 nM | CC50 (SK-MEL-28; [2]): 99300 nM | GI50 (HCT-116): 79.5 nM | TGI (HCT-116): 10000 nM | CC50 (HCT-116; [2]): > 100000 nM | GI50 (M14): 70.8 nM | CC50 (M14; [2]): 49900 nM | GI50 (MALME-3M): 16800 nM | TGI (MALME-3M): 49600 nM | CC50 (MALME-3M; [2]): > 100000 nM
